According to patent publication US20090299056A1 (priority 2005, published 2009):

Tests used:
Typhoid bacillus = conditions: cited from earlier work
bacillus anthracis = conditions: cited from earlier work
shigella = conditions: cited from earlier work
Haemophilus influenzae = conditions: cited from earlier work
[1] = test system: Corynebacterium diphtheriae; conditions: cited from earlier work
[2] = test system: streptococcus haemolytica; conditions: cited from earlier work
Streptococcus pneumoniae = conditions: cited from earlier work
listeria = conditions: cited from earlier work
klebsiella pneumoniae = conditions: cited from earlier work
actistaphylococcus = conditions: cited from earlier work
P. aeruginosa = conditions: cited from earlier work
other enterobacteriaceae = conditions: cited from earlier work
[3] = test system: PPNG (Penicillinase-Producing Neisseria gonorrheae); conditions: cited from earlier work
proteus mirabilis = conditions: cited from earlier work
acinetobacter = conditions: cited from earlier work
neisseria = conditions: cited from earlier work
Gram-positive coccus = conditions: except enterococcus, methicillin-resistant staphylococcus; cited from earlier work
partial E.coli = conditions: cited from earlier work
dissolving rate = type: physicochemical
[4] = solution in water containing 0.1 g per 1 ml
stability, expiry date = type: physicochemical; conditions: identified by State Food and Drug Administration

In the case of `Cc1nnc(SCC2=C(C(=O)O)N3C(=O)[C@@H](NC(=O)Cn4cnnn4)[C@H]3SC2)s1` [Cefazolin sodium], the sensitivity (Typhoid bacillus) is listed as “sensitive”, the sensitivity (bacillus anthracis) is listed as “very sensitive” and the sensitivity (shigella) is listed as “sensitive”. The sensitivity (Haemophilus influenzae) was “intermediate sensitivity”, the sensitivity [1] was “very sensitive” and the sensitivity [2] was “highly sensitive”. The sensitivity (Streptococcus pneumoniae) was “highly sensitive”, the sensitivity (listeria) was “very sensitive” and the antibacterial activity (klebsiella pneumoniae) was “good antibacterial activity”. For the same compound, the antibacterial activity (actistaphylococcus) was “low antibacterial activity”, the sensitivity (P. aeruginosa) was “resistant” and the sensitivity (other enterobacteriaceae) was “resistant”. For the same compound, the sensitivity [3] was “resistant”, the antibacterial activity (proteus mirabilis) was “good antibacterial activity” and the sensitivity (acinetobacter) was “resistant”. For the same compound, the sensitivity (neisseria) was “sensitive”, the antibacterial activity (Gram-positive coccus) was “excellent antibacterial activity” and the antibacterial activity (partial E.coli) was “good antibacterial activity”.

For `Cc1nnc(SCC2=C(C(=O)[O-])N3C(=O)[C@@H](NC(=O)Cn4cnnn4)[C@H]3SC2)s1.O.O.O.O.O.[Na+]` [cefazolin sodium pentahydrate], the dissolving rate (dissolving rate) was “rapid dissolving rate”, the pH value [4] was 4.8-6.3 and the expiry date (stability, expiry date) was 24 months.
